In ChEMBL document CHEMBL6092142, “Discovery and preclinical profile of YK-2168, a differentiated selective CDK9 inhibitor in clinical development” (Bioorg Med Chem Lett, 2024):
≈ marks a conversion by molar mass, not a printed value. Calls of active or inactive are those of the source. No cut-off for these calls is given here.

Legend:
[1] = biological target: Cyclin-dependent kinase 1 (Homo sapiens, UniProt P06493); experiment: Inhibition of CDK1 (unknown origin)
[2] = biological target: Cyclin-dependent kinase 2 (Homo sapiens, UniProt P24941); experiment: Inhibition of CDK2 (unknown origin)
[3] = biological target: Cyclin-dependent kinase 9 (Homo sapiens, UniProt P50750); experiment: Inhibition of CDK9 (unknown origin)
Chain of Cyclin-dependent kinase 9 (P50750 whole entry): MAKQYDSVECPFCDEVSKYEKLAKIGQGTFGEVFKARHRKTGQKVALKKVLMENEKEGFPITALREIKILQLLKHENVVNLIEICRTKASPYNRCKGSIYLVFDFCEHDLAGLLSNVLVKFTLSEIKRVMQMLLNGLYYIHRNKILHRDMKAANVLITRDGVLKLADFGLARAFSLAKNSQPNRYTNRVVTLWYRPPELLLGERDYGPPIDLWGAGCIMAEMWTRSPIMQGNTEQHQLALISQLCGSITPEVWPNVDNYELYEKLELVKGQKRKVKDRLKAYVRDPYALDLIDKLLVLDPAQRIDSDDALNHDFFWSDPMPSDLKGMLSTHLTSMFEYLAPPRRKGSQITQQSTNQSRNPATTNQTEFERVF

[4] = Selectivity index, ratio of IC50 for inhibition of CDK1 (unknown origin) to IC50 for inhibition of CDK9 (unknown origin)
[5] = Selectivity index, ratio of IC50 for inhibition of CDK2 (unknown origin) to IC50 for inhibition of CDK9 (unknown origin)
[6] = system: MV4-11; experiment: Antiproliferative activity against human MV4-11 cells assessed as cell viability; format: functional, cell-based
[7] = Aqueous solubility of compound at pH 4; format: physicochemical
[8] = Volume of distribution in CD-1 mouse at 2 mg/kg, iv; format: ADME, organism-based; conditions: in vivo
[9] = Clearance in CD-1 mouse at 2 mg/kg, iv; format: ADME, organism-based; conditions: in vivo
[10] = Half life in CD-1 mouse at 2 mg/kg, iv; format: ADME, organism-based; conditions: in vivo
[11] = AUC (0 to 24 hrs) in CD-1 mouse at 2 mg/kg, iv; format: ADME, organism-based; conditions: in vivo
[12] = system: MV4-11; experiment: Antitumor activity against human MV4-11 cells xenografted in mouse assessed as tumor growth inhibition at 10 mg/kg, iv measured upto 28 days; format: functional; conditions: MV4-11, 672 h, time <= 28 day, read-out: TGI
[13] = Toxicity in mouse assessed as change in body weight at 10 mg/kg, iv measured upto 28 days; format: organism-based; conditions: in vivo, 672 h, time < 28 day
[14] = system: MV4-11; experiment: Antitumor activity against human MV4-11 cells xenografted in iv dosed mouse assessed as reduction in pol II CTD level in tumor measured upto 24 hrs by Western blot analysis; format: functional, organism-based; conditions: dose 5-15 mg/kg
[15] = system: MV4-11; experiment: Antitumor activity against human MV4-11 cells xenografted in mouse assessed as reduction in MYC level in tumor at 5 to 15 mg/kg, iv measured upto 24 hrs by Western blot analysis; format: functional, organism-based; conditions: dose 5-15 mg/kg
[16] = system: MV4-11; experiment: Antitumor activity against human MV4-11 cells xenografted in mouse assessed as reduction in Mcl1 level in tumor at 5 to 15 mg/kg, iv measured upto 24 hrs by Western blot analysis; format: functional, organism-based; conditions: dose 5-15 mg/kg
[17] = system: MV4-11; experiment: Antitumor activity against human MV4-11 cells xenografted in mouse assessed as upregulation of caspase-3 level in tumor at 5 to 15 mg/kg, iv by Western blot analysis; format: functional, organism-based; conditions: dose 5-15 mg/kg, time <= 24.0 hrs
[18] = Plasma protein binding in human; format: ADME, cell-free; conditions: read-out: PPB (converted)
[19] = Permeability across apical to basolateral side in human Caco-2 cells; format: ADME, cell-based; conditions: read-out: permeability
[20] = Permeability across basolateral to apical side in human Caco-2 cells; format: ADME, cell-based; conditions: read-out: permeability
[21] = Efflux ratio of permeability basolateral to apical side over apical to basolateral side in human Caco-2 cells; format: ADME, cell-based
[22] = Metabolic stability in human hepatocytes assessed as half life; format: ADME, cell-based, Hepatocyte
[23] = Metabolic stability in monkey hepatocytes assessed as half life; format: ADME, cell-based, Macaca mulatta, Hepatocyte; conditions: rhesus monkey
[24] = Metabolic stability in dog hepatocytes assessed as half life; format: ADME, cell-based, Canis lupus familiaris, Hepatocyte
[25] = Metabolic stability in rat hepatocytes assessed as half life; format: ADME, cell-based, Hepatocyte
[26] = Metabolic stability in mouse hepatocytes assessed as half life; format: ADME, cell-based, Hepatocyte
[27] = biological target: T1, Cytochrome P450 3A4 (Homo sapiens, UniProt P08684); experiment: Inhibition of CYP3A4 (unknown origin); format: ADME
T1 sequence (P08684 whole entry): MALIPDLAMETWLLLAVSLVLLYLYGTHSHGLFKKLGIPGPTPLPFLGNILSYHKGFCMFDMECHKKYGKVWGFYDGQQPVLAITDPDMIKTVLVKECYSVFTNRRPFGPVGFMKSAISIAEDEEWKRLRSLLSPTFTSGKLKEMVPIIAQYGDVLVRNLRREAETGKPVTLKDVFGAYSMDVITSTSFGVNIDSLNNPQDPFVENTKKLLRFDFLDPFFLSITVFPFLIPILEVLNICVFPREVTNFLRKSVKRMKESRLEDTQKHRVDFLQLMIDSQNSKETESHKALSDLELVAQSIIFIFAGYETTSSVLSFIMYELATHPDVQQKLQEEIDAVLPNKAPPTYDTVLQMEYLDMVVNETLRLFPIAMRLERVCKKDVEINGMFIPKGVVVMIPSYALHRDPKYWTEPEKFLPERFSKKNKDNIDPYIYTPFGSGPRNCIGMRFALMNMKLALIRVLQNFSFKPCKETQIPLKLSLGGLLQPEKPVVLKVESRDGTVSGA

[28] = biological target: T2, Cytochrome P450 2D6 (Homo sapiens, UniProt P10635); experiment: Inhibition of CYP2D6 (unknown origin); format: ADME
T2 sequence (P10635 whole entry): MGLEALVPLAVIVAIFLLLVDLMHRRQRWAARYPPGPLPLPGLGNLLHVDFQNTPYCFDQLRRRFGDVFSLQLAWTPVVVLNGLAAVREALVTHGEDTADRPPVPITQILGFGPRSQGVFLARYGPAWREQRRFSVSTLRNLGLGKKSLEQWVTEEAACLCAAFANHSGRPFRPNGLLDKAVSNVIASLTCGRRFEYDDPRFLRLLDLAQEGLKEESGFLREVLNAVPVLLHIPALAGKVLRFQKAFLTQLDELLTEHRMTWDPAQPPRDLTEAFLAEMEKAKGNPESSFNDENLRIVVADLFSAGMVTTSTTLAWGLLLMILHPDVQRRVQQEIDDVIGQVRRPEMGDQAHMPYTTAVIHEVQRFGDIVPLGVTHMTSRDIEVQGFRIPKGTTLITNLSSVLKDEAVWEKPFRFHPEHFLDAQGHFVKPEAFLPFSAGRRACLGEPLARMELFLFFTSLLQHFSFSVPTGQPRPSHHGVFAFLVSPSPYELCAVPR

[29] = biological target: T3, Cytochrome P450 2C19 (Homo sapiens, UniProt P33261); experiment: Inhibition of CYP2C19 (unknown origin); format: ADME
T3 sequence (P33261 whole entry): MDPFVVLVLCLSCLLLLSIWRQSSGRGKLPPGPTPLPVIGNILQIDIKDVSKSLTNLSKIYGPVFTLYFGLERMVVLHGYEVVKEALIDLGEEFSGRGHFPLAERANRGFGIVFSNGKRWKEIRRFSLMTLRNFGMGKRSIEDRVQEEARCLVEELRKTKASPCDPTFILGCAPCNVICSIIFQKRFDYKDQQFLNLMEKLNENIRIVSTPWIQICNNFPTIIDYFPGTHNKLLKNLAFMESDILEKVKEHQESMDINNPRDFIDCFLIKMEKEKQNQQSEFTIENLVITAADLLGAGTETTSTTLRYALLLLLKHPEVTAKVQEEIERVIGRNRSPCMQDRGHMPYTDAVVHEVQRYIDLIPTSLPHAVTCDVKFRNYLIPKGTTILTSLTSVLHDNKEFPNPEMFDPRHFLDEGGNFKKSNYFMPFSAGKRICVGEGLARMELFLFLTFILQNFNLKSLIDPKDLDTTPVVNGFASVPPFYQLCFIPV

[30] = biological target: T4, Cytochrome P450 2C9 (Homo sapiens, UniProt P11712); experiment: Inhibition of CYP2C9 (unknown origin); format: ADME
T4 sequence (P11712 whole entry): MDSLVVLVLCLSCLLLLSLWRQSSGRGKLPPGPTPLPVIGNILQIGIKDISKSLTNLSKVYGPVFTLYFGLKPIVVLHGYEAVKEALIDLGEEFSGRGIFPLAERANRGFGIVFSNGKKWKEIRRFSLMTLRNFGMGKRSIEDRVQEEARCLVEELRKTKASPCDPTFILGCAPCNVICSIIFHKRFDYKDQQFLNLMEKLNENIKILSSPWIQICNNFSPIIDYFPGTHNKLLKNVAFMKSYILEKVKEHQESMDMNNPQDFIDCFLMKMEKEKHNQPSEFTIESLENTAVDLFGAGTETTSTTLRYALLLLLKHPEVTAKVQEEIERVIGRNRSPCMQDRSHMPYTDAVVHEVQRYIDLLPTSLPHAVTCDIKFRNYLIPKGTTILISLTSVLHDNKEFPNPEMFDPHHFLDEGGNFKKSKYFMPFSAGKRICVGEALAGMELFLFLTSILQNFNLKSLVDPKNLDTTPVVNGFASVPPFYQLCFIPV

[31] = biological target: T5, Cytochrome P450 2C8 (Homo sapiens, UniProt P10632); experiment: Inhibition of CYP2C8 (unknown origin); format: ADME
T5 sequence (P10632 whole entry): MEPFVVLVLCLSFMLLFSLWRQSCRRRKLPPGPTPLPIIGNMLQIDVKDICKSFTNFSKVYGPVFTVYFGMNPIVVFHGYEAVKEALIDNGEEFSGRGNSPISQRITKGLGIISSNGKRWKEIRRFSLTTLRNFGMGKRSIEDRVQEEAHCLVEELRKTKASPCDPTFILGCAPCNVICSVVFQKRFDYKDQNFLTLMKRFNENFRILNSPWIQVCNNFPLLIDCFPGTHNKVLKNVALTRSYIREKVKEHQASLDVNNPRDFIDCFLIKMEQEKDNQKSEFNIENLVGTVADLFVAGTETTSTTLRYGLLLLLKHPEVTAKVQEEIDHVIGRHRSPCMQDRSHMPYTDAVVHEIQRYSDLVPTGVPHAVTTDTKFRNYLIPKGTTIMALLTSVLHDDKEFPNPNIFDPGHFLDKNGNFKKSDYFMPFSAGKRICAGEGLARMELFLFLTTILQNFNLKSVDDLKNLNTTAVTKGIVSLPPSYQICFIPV

[32] = biological target: T6, Cytochrome P450 2B6 (Homo sapiens, UniProt P20813); experiment: Inhibition of CYP2B6 (unknown origin); format: ADME
T6 sequence (P20813 whole entry): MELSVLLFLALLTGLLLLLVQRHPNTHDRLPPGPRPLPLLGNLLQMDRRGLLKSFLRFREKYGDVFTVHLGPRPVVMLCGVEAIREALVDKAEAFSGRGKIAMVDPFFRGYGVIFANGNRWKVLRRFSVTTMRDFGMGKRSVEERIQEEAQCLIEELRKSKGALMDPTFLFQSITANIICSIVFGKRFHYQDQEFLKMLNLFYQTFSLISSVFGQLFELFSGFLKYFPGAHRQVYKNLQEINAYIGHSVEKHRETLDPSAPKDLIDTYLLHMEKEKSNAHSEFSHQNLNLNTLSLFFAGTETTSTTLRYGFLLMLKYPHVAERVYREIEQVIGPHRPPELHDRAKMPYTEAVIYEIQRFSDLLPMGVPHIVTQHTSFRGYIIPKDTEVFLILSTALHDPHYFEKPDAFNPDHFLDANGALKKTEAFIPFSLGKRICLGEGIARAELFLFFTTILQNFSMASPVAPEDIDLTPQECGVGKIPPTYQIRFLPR

[33] = biological target: T7, Cytochrome P450 1A2 (Homo sapiens, UniProt P05177); experiment: Inhibition of CYP1A2 (unknown origin); format: ADME
T7 sequence (P05177 whole entry): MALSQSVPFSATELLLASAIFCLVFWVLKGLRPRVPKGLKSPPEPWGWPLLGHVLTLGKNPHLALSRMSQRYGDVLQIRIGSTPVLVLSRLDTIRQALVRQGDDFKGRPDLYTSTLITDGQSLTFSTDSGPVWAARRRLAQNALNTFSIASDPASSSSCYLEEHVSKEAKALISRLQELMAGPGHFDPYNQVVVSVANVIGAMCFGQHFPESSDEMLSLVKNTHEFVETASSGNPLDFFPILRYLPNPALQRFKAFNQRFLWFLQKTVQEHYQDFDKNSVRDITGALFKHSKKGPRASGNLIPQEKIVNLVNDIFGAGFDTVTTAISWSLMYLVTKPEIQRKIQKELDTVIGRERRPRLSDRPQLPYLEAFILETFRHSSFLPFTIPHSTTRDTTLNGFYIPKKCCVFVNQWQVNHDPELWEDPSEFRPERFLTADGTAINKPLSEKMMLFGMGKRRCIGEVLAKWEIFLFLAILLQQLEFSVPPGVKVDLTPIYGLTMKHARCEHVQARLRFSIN

[34] = biological target: T1, Cytochrome P450 3A4; experiment: Time dependent inhibition of CYP3A4 (unknown origin); format: ADME
[35] = biological target: T4, Cytochrome P450 2C9; experiment: Time dependent inhibition of CYP2C9 (unknown origin); format: ADME
[36] = biological target: T3, Cytochrome P450 2C19; experiment: Time dependent inhibition of CYP2C19 (unknown origin); format: ADME
[37] = biological target: T2, Cytochrome P450 2D6; experiment: Time dependent inhibition of CYP2D6 (unknown origin); format: ADME
[38] = biological target: T5, Cytochrome P450 2C8; experiment: Time dependent inhibition of CYP2C8 (unknown origin); format: ADME
[39] = biological target: T7, Cytochrome P450 1A2; experiment: Time dependent inhibition of CYP1A2 (unknown origin); format: ADME
[40] = biological target: T1, Cytochrome P450 3A4; experiment: Induction of CYP3A4 (unknown origin); format: ADME
[41] = system: SNU-16; experiment: Antitumor activity against human SNU-16 cells xenografted in iv dosed mouse assessed as tumor growth inhibition; format: functional, organism-based; conditions: dose 5-15 mg/kg
[42] = Volume of distribution in Sprague-Dawley rat at 4 mg/kg, iv; format: ADME, organism-based; conditions: in vivo
[43] = Volume of distribution in Beagle dog at 1 mg/kg, iv; format: ADME, organism-based, Canis lupus familiaris; conditions: in vivo
[44] = Clearance in Sprague-Dawley rat at 4 mg/kg, iv; format: ADME, organism-based; conditions: in vivo
[45] = Clearance in Beagle dog at 1 mg/kg, iv; format: ADME, organism-based, Canis lupus familiaris; conditions: in vivo
[46] = Half life in Sprague-Dawley rat at 4 mg/kg, iv; format: ADME, organism-based; conditions: in vivo
[47] = Half life in Beagle dog at 1 mg/kg, iv; format: ADME, organism-based, Canis lupus familiaris; conditions: in vivo
[48] = AUC (0 to 24 hrs) in Sprague-Dawley rat at 4 mg/kg, iv; format: ADME, organism-based; conditions: in vivo
[49] = AUC (0 to 24 hrs) in Beagle dog at 1 mg/kg, iv; format: ADME, organism-based, Canis lupus familiaris; conditions: in vivo
[50] = biological target: Voltage-gated inwardly rectifying potassium channel KCNH2 (Homo sapiens, UniProt Q12809); experiment: Inhibition of hERG upto 30 uM; format: toxicity
Chain of Voltage-gated inwardly rectifying potassium channel KCNH2 (Q12809 whole entry): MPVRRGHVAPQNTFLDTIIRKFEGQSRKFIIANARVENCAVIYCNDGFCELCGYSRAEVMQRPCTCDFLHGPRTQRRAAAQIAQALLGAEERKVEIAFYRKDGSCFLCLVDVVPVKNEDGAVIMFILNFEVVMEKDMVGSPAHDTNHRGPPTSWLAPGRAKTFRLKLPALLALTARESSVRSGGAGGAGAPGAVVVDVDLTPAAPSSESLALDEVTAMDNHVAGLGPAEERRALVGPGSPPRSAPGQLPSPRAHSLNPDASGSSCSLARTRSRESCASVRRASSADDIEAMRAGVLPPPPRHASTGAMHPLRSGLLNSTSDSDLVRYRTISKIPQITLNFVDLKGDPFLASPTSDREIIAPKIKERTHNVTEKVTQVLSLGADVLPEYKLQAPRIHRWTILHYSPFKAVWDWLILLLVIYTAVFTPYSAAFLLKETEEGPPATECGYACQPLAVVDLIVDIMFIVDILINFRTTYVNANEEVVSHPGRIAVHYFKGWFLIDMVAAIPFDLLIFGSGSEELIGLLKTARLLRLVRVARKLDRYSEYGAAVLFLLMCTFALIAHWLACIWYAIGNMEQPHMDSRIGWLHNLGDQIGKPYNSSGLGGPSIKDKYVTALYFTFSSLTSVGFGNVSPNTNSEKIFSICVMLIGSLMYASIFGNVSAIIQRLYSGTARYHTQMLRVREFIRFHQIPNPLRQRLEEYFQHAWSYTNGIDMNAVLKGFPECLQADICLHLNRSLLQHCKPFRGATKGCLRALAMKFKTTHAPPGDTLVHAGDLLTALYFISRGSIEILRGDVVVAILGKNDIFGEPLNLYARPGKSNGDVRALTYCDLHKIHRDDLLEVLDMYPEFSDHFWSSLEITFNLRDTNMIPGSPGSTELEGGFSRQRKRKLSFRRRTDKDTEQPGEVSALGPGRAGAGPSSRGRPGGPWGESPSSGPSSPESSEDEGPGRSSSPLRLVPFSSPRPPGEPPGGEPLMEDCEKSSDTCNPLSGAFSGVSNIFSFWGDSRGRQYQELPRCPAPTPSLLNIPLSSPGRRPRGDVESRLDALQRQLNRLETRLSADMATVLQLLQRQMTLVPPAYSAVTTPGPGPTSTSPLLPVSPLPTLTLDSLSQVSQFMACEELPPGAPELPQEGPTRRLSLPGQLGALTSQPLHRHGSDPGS

Chain of Cyclin-dependent kinase 1 (P06493 whole entry): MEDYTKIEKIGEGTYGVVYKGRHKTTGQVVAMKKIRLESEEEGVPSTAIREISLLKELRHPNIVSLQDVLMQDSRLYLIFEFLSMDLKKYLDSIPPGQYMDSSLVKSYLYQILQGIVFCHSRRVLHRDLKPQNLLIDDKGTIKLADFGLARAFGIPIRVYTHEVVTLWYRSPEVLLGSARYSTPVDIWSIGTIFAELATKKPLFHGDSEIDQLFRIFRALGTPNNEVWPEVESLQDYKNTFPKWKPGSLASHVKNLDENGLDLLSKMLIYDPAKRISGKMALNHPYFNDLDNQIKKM

Cn1cc(-c2c(Cl)cnc3[nH]c(C4CCNCC4)cc23)cn1
IC50 [1]: 428 nM
IC50 [2]: 267 nM
IC50 [3]: 5.9 nM
Ratio IC50 [4]: 72.5
Ratio IC50 [5]: 45.2
IC50 [6]: 53.4 nM
solubility [7]: 1500 µg/mL (≈ 4.75 mM)
Vd ([8]; CD-1, mouse, read-out: Vd): 10.2 L/kg
clearance [9]: 115 mL/min/kg
half-life ([10]; CD-1, mouse): 1.47 h
AUC(0-t) ([11]; CD-1, mouse): 0.916 µM·h
inhibition in vivo at 10 mg/kg [12]: 80%
Activity [13]: Non-toxic
Activity [14]: Dose-dependent-effect
Activity [15]: Active
Activity [16]: Active
Activity [17]: Time-dependent-effect
fraction unbound [18]: 0.711
Papp A→B [19]: 0.82 ×10⁻⁶ cm/s
Papp B→A [20]: 13.9 ×10⁻⁶ cm/s
efflux ratio [21]: 17
half-life [22]: > 4.66 h
half-life [23]: 4.4 h
half-life [24]: > 4.66 h
half-life [25]: 3.71 h
half-life [26]: 1.35 h
IC50 [27]: > 100000 nM
IC50 [28]: > 100000 nM
IC50 [29]: 96200 nM
IC50 [30]: > 100000 nM
IC50 [31]: > 100000 nM
IC50 [32]: > 100000 nM
IC50 [33]: 44700 nM
TDI [34]: Not_active
TDI [35]: Not_active
TDI [36]: Not_active
TDI [37]: Not_active
TDI [38]: Not_active
TDI [39]: Not_active
Activity [40]: Not_active
TGI [41]: Dose-dependent-effect; Partial Response Is Observed In 2/8 Mouse At 5 Mg/Kg Group, Partial Response Observed In 6/8 Mouse At 10 Mg/Kg And Partial Response Is Observed In 7/8 Mouse At 15 Mg/Kg Dose Group.
Vd [42]: 11.2 L/kg
Vd [43]: 7.62 L/kg
clearance [44]: 52 mL/min/kg
clearance [45]: 29.1 mL/min/kg
half-life [46]: 3.2 h
half-life [47]: 3.96 h
AUC(0-t) [48]: 1250 ng·h/mL
AUC(0-t) [49]: 568 ng·h/mL
inhibition (INH) [50]: Not_active

COc1cc(F)ccc1-c1cc(Nc2cc(CS(C)(=N)=O)ccn2)ncc1F (stereo unspecified) [ENITOCICLIB]
IC50 [1]: 250 nM
IC50 [2]: 231 nM
IC50 [6]: 92.4 nM
Vd ([8]; mouse, iv, 2 mg/kg): 1.27 L/kg
t1/2 ([10]; mouse, iv, 2 mg/kg): 0.44 h
AUC ([11]; mouse, iv, 2 mg/kg): 2.686 µM·h
inhibition in vivo at 10 mg/kg [12]: 65%
Activity [13]: Non-toxic

COCCN1CCC(c2cc3c(-c4cnn(CC5CC5)c4)c(Cl)cnc3[nH]2)CC1
Ratio IC50 [4]: 146
Ratio IC50 [5]: 22.1
IC50 [6]: 63.8 nM
